Assay results: US6500323B1, “Methods and software for designing microfluidic devices” (Caliper Technologies Corp., priority 1999, dated 2002)

Assays:
[1] = molecular target: T1, Gq coupled P2u purinergic receptor (THP-1) (Homo sapiens, UniProt P41231); assay: model calcium flux assay, dose response in microfluidic device; assay type: cell-based; conditions: THP-1 cells preloaded with Fluo-3 or Fluo-4; UTP 100, 300, 1000 and 3000 nM; detection 15 seconds after initial exposure; FIG. 2D/2E
T1 construct: cell line that carried the Gq coupled P2u purinergic receptor (THP-1); endogenous in cells; host or cells: THP-1 (human monocytic leukemia cell line)
Excerpt: The device shown in FIG. 2C was fabricated and used to test the dose response of a human monocytic leukemia cell line that carried the Gq coupled P2u purinergic receptor (THP-1), as a model calcium flux assay. Briefly, a phospholipase C/IP3/calcium signal transduction pathway is activated when the receptor binds to its ligand, UTP. When the cells are preloaded with a calcium sensitive indicator, i.e., Fluo-3 or Fluo-4 (available from Molecular Probes, Eugene, Oreg.), the transient increase in intracellular calcium is then detected as a fluorescent signal.
In the present example and with reference to FIGS. 2A and 2C, THP-1 cells were preloaded with Fluo-3 or Fluo-4, as well as a nucleic acid stain (Syto-62 from Molecular Probes). The cells were washed and resuspended in Cell Buffer (1.56 ml HBSS, 0.94 ml 33% Ficoll, 5 μl HEPES (1 M stock), 25 μl 100×PBC, 25 μl 10% BSA, and 0.546 ml OPTI-Prep (65% stock)) and added to reservoir 206. Different concentrations of UTP in Cell Buffer (100, 300, 1000 and 3000 nM, respectively) were then added to reagent reservoirs 210-216. […]
In order to monitor the stepwise increase of each UTP reagent solution, an additional marker solution, BODIPY-arginine, was added to the reagent reservoirs 210-216. […] Briefly, the slope of calcium signal (response) vs. Syto 62 signal (cell number) was calculated for each UTP concentration.

[2] = molecular target: Protein Kinase A (PKA) (Homo sapiens, UniProt P17612); assay: nonfluorogenic (mobility shift) assay of kinase activity in microfluidic device; assay type: biochemical; conditions: PKA 100 nM, 10 μM F1-Kemptide; different concentrations of inhibitor sipped; FIG. 3C
Description: The device illustrated in FIG. 3B was used as described to perform a nonfluorogenic assay of kinase activity, and particularly, to screen for inhibition of kinase activity by inhibitors brought into the device via the external sampling capillary. In particular, Protein Kinase A (PKA) enzyme (100 nM) was placed into well 350, while the fluorescent substrate (10 μM F1-Kemptide) was placed into well 352, different concentrations of an exemplary PKA inhibitor (H-89) were sipped into the reaction channel portion 304 via an external capillary element (the entry point of which is shown as 302) at regular intervals. Flow of materials, including sipping of inhibitor was caused by applying vacuum (as described above) at waste reservoir 358. An electric field was constantly applied across the length of channel segment 310 by virtue of different voltages being applied at reservoirs 354 and 356. The process utilized a 5 second sipping time, with an overall 100 second duty cycle, e.g., reaction time plus separation time plus clearing time.

T1 sequence (P41231 whole entry): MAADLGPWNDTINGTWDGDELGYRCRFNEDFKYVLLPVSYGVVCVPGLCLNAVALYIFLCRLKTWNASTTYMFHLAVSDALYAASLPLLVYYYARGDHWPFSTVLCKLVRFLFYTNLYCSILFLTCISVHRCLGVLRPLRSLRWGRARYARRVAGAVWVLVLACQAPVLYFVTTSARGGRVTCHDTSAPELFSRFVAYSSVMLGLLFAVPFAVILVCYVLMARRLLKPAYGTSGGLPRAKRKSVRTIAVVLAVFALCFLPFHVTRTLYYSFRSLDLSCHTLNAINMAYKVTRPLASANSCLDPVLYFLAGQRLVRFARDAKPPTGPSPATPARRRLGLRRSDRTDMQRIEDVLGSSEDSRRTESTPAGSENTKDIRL

| SMILES | calcium signal (response), fluorescent signal from each cell [1] | inhibition of kinase activity (deviation from steady state) [2] |
| --- | --- | --- |
| O=c1ccn([C@@H]2O[C@H](COP(=O)(O)OP(=O)(O)OP(=O)(O)O)[C@@H](O)[C@H]2O)c(=O)[nH]1 [UTP] | peaks increase discernibly in size with each stepwise addition | – |
| O=S(=O)(NCCNC/C=C/c1ccc(Br)cc1)c1cccc2cnccc12 [H-89] | – | greatest deviation from steady state (A) is seen with highest inhibitor concentration |
